Reference: article PMC4839570, “Novel Anthra[1,2-c][1,2,5]Thiadiazole-6,11-Diones as Promising Anticancer Lead Compounds: Biological Evaluation, Characterization & Molecular Targets Determination” (PLoS ONE, 2016)
Where two headings read alike, the source gives them in different places.

Key:
[1] = tested on: RPMI-8226; assay: NCI-60 cytotoxicity screen; type: cell-based
[2] = tested on: SR; assay: NCI-60 cytotoxicity screen; type: cell-based
[3] = tested on: A549/ATCC; assay: NCI-60 cytotoxicity screen; type: cell-based
[4] = tested on: HOP-62; assay: NCI-60 cytotoxicity screen; type: cell-based
[5] = tested on: NCI-H322M; assay: NCI-60 cytotoxicity screen; type: cell-based
[6] = tested on: HCC-2998; assay: NCI-60 cytotoxicity screen; type: cell-based
[7] = tested on: HCT-116; assay: NCI-60 cytotoxicity screen; type: cell-based
[8] = tested on: HT29; assay: NCI-60 cytotoxicity screen; type: cell-based
[9] = tested on: KM12; assay: NCI-60 cytotoxicity screen; type: cell-based
[10] = tested on: SNB-75; assay: NCI-60 cytotoxicity screen; type: cell-based
[11] = tested on: MDA-MB-435; assay: NCI-60 cytotoxicity screen; type: cell-based
[12] = tested on: SK-MEL-5; assay: NCI-60 cytotoxicity screen; type: cell-based
[13] = tested on: UACC-62; assay: NCI-60 cytotoxicity screen; type: cell-based
[14] = tested on: 786-0; assay: NCI-60 cytotoxicity screen; type: cell-based
[15] = tested on: SN12C; assay: NCI-60 cytotoxicity screen; type: cell-based
[16] = tested on: TK-10; assay: NCI-60 cytotoxicity screen; type: cell-based
[17] = tested on: DU-145; assay: NCI-60 cytotoxicity screen; type: cell-based
[18] = tested on: SF-539; assay: JFCR-39 cytotoxicity screen; type: cell-based
[19] = tested on: SNB-78; assay: JFCR-39 cytotoxicity screen; type: cell-based
[20] = tested on: HCC2998; assay: JFCR-39 cytotoxicity screen; type: cell-based
[21] = tested on: KM-12; assay: JFCR-39 cytotoxicity screen; type: cell-based
[22] = tested on: NCI-H23; assay: JFCR-39 cytotoxicity screen; type: cell-based
[23] = tested on: DMS114; assay: JFCR-39 cytotoxicity screen; type: cell-based
[24] = tested on: OVCAR-5; assay: JFCR-39 cytotoxicity screen; type: cell-based
[25] = tested on: OVCAR-8; assay: JFCR-39 cytotoxicity screen; type: cell-based
[26] = tested on: MKN1; assay: JFCR-39 cytotoxicity screen; type: cell-based
[27] = tested on: MKN74; assay: JFCR-39 cytotoxicity screen; type: cell-based
[28] = tested on: NF-κB p65 subunit in OVCAR-3 cells; assay: Western blotting of nuclear and cytosolic fractions; type: cell-based, human; conditions: OVCAR-3 nuclear fraction
Description: Treated cells were fractionated into nuclear and cytosolic fractions using the Nuclear/Cytosol fractionation kit (BioVision), separated by electrophoresis in SDS-PAGE gels and transferred to Amersham Hybond-P PVDF Membranes. Membranes were probed with either anti-NF-κB p65 rabbit monoclonal primary antibody [E379] Abcam # ab32536, anti-TATA binding protein (TBP) mouse antibody (1TBP18), or anti-beta Tubulin rabbit antibody [NB600-936]. After washing, membranes were incubated with either goat anti-rabbit IgG H&L (HRP) (ab6721), or rabbit anti-mouse IgG H&L (HRP) (ab6728) secondary antibodies. Membranes were developed using the Immobilon Western chemiluminescent HRP substrate kit. Protein bands were normalized to either the beta Tubulin or TBP bands and quantified using ImageJ software.

[29] = tested on: OVCAR-3; assay: cells; conditions: Homo sapiens, OVCAR-3, read-out: mean log10 of the GI50 values (converted)
[30] = Homo sapiens, Fig 7, read-out: mean log10 of the GI50 values (converted)
[31] = Homo sapiens, five-dose, read-out: GI50
[32] = Homo sapiens, five-dose, read-out: LC50 (the source's name)
[33] = Homo sapiens, read-out: LC50 (the source's name)

O=C1c2ccccc2C(=O)c2c1cc(Cl)c1nsnc21 [NSC757963]
GI50 [1, 30]: 2.88 µM | GI50 [1, 31]: 3.15 µM | CC50 [1, 32]: > 100 µM | TGI ([1]; five-dose): 53.2 µM | GI50 [2, 30]: 1.82 µM | GI50 [2, 31]: 2.64 µM | CC50 [2, 32]: > 100 µM | TGI ([2]; five-dose): >100 µM | GI50 [3, 30]: 91.2 µM | GI50 [3, 31]: > 100 µM | CC50 [3, 32]: > 100 µM | TGI ([3]; five-dose): >100 µM | GI50 [4, 30]: 3.89 µM | GI50 [4, 31]: 4.95 µM | CC50 [4, 32]: 43.3 µM | TGI ([4]; five-dose): 17.3 µM | GI50 [5, 30]: 30.9 µM | GI50 [5, 31]: 18.6 µM | CC50 [5, 32]: 71 µM | TGI ([5]; five-dose): 36.3 µM | GI50 [6, 30]: 17 µM | LC50 (concentration causing 50% net cell kill) ([6]; Homo sapiens, five-dose): 56.6 µM | GI50 [6, 31]: 14.1 µM | TGI ([6]; five-dose): 28.2 µM | GI50 [7, 30]: 2.45 µM | GI50 [7, 31]: 3.45 µM | CC50 [7, 32]: 35.3 µM | TGI ([7]; five-dose): 11.8 µM | GI50 ([8]; Homo sapiens, HT-29, Fig 7, read-out: mean log10 of the GI50 values (converted)): 19.5 µM | GI50 ([8]; Homo sapiens, HT-29, five-dose, read-out: GI50): 19.2 µM | CC50 ([8]; Homo sapiens, HT-29, five-dose, read-out: LC50 (the source's name)): 98.2 µM | TGI ([8]; five-dose): 43.4 µM | GI50 [9, 30]: 10.7 µM | GI50 [9, 31]: 12.9 µM | CC50 [9, 32]: 52.1 µM | TGI ([9]; five-dose): 25.9 µM | GI50 [10, 30]: 1.91 µM | GI50 [10, 31]: 2.17 µM | CC50 [10, 32]: 69.1 µM | TGI ([10]; five-dose): 6.89 µM | GI50 [11, 30]: 1.95 µM | GI50 [11, 31]: 1.99 µM | CC50 [11, 32]: 7.49 µM | TGI ([11]; five-dose): 3.86 µM | GI50 [12, 30]: 6.92 µM | GI50 [12, 31]: 8.48 µM | CC50 [12, 32]: 46.2 µM | TGI ([12]; five-dose): 21.0 µM | GI50 [13, 30]: 3.47 µM | GI50 [13, 31]: 4.43 µM | CC50 [13, 32]: 41.8 µM | TGI ([13]; five-dose): 17.0 µM | TGI ([14]; 786–0, five-dose): 31.8 µM | GI50 ([14]; Homo sapiens, 786-0, Fig 7, read-out: mean log10 of the GI50 values (converted)): 6.61 µM | GI50 ([14]; Homo sapiens, 786–0, five-dose, read-out: GI50): 17.2 µM | CC50 ([14]; Homo sapiens, 786–0, five-dose, read-out: LC50 (the source's name)): 58.8 µM | GI50 [15, 30]: 2.29 µM | GI50 [15, 31]: 3.27 µM | CC50 [15, 32]: 36.1 µM | TGI ([15]; five-dose): 13.1 µM | GI50 [16, 30]: 22.9 µM | GI50 [16, 31]: 24.1 µM | CC50 [16, 32]: 64.1 µM | TGI ([16]; five-dose): 39.3 µM | GI50 [17, 30]: 14.1 µM | GI50 [17, 31]: 14.2 µM | CC50 [17, 32]: 52.2 µM | TGI ([17]; five-dose): 27.2 µM | TGI [18]: 3.4 µM | GI50 ([18]; Homo sapiens): 1.9 µM | CC50 [18, 33]: 6.4 µM | TGI [19]: 4.1 µM | GI50 ([19]; Homo sapiens): 2.2 µM | CC50 [19, 33]: 7.9 µM | TGI [20]: 3.5 µM | GI50 ([20]; Homo sapiens, HCC 2998): 1.9 µM | CC50 ([20]; Homo sapiens, HCC 2998, read-out: LC50 (the source's name)): 6.4 µM | TGI [21]: 8.4 µM | GI50 ([21]; Homo sapiens, KM12): 3 µM | CC50 ([21]; Homo sapiens, KM12, read-out: LC50 (the source's name)): 36 µM | TGI [22]: 4.1 µM | GI50 ([22]; Homo sapiens): 1.9 µM | CC50 [22, 33]: 8.7 µM | TGI [23]: 2.5 µM | GI50 ([23]; Homo sapiens, DMS-114): 1 µM | CC50 ([23]; Homo sapiens, DMS-114, read-out: LC50 (the source's name)): 6.1 µM | TGI [24]: 3.0 µM | GI50 ([24]; Homo sapiens): 1.6 µM | CC50 [24, 33]: 5.5 µM | TGI [25]: 4.8 µM | GI50 ([25]; Homo sapiens): 2.1 µM | CC50 [25, 33]: > 100 µM | TGI [26]: 3.4 µM | GI50 ([26]; Homo sapiens, MKN-1): 1.8 µM | CC50 ([26]; Homo sapiens, MKN-1, read-out: LC50 (the source's name)): 6.6 µM | TGI [27]: 4.2 µM | GI50 ([27]; Homo sapiens, MKN-74): 2.1 µM | CC50 ([27]; Homo sapiens, MKN-74, read-out: LC50 (the source's name)): 8.4 µM | dose of almost complete inhibition of nuclear NF-κB p65 expression [28]: 2.4 µM | GI50 [29]: 1.86 µM
